In the assay the test system is HIV-1 LAI envelope single-round infectious reporter virus. The assay is described as follows: Single-round infectious luciferase reporter virus (HIV-1 LAI envelope) infection of MT2 cells. The settings on record: Human immunodeficiency virus 1, MT2, 72 h. The format is cell-based. An excerpt:
• Virus production—Human embryonic Kidney cell line, 293T (HEK 293T), was propagated in Dulbecco's Modified Eagle Medium (Invitrogen, Carlsbad, Calif.) containing 10% fetal bovine serum (FBS, Sigma, St. Louis, Mo.). The human T-cell leukemia cell MT2 (AIDS Research and Reference Reagent Program, Cat. 237) was propagated in RPMI 1640 (Invitrogen, Carlsbad, Calif.) containing 10% fetal bovine serum (FBS, Hyclone, Logan, Utah) • Virus infection—Single-round infectious reporter virus was produced by co-transfecting HEK 293T cells with plasmide expressing the HIV-1 LAI envelope along with a plasmid containing an HIV-1 LAI proviral cDNA with the envelope gene replaced by a firefly luciferase reporter gene (Chen et al., Ref 41). Transfections were performed using lipofectAMINE PLUS reagent as described by the manufacturer (Invitrogen, Carlsbad, Calif.). Experimental Procedure • 1. MT2 cells were plated in black, 384 well plates at a cell density of 5×10^3 cells per well in 25 μl RPMI 1640 containing 10% FBS. • 2. Compound (diluted in dimethylsulfoxide and growth medium) was added to cells at 12.5 μl/well, so that the final assay concentration would be ≦50 nM. • 3. 12.5 μl of single-round infectious reporter virus in Dulbecco's Modified Eagle Medium was added to the plated cells and compound at an approximate multiplicity of infection (MOI) of 0.01, resulting in a final volume of 50 μl per well. • 4. Virus-infected cells were incubated at 37 degrees Celsius in a CO2 incubator and harvested 72 h after infection. • 5. Viral infection was monitored by measuring luciferase expression in the infected cells using a luciferase reporter gene assay kit (Steady-Glo, Promega, Madison, Wis.) as described by the manufacturer. Luciferase activity was then quantified by measuring luminescence using an EnVision Multilabel Plate Readers (PerkinElmer, Waltham, Mass.). • 6. The percent inhibition for each compound was calculated by quantifying the level of luciferase expression in cells infected in the presence of each compound as a percentage of that observed for cells infected in the absence of compound and subtracting such a determined value from 100. • 7. An EC50 provides a method for comparing the antiviral potency of the compounds of this disclosure. The effective concentration for fifty percent inhibition (EC50) was calculated with the Microsoft Excel Xlfit curve fitting software. For each compound, curves were generated from percent inhibition calculated at 10 different concentrations by using a four parameter logistic model (model 205). Table 1 is the key for the data in Table 2.
In general terms: In a reporter assay the amount or activity of a reporter protein is the signal.

Where [1] appears, read: read-out: EC50 Group from Table 1.

Read-outs that look alike come from different tables or passages of the source. Bounds are passed on as bounds.

The compound `COc1cnc(-n2cnc(C)n2)c2[nH]cc(C(=O)C(=O)N3CC/C(=C(/C#N)c4ccccc4)CN3C)c12` [Compound 1006, (Z)-2-(1-(2-(4-methoxy-7-(3-methyl-1H-1,2,4-triazol-1-yl)-1H-pyrrolo[2,3-c]pyridin-3-yl)-2-oxoacetyl)-2-methylpiperazin-4-ylidene)-2-phenylacetonitrile] had an EC50 of 456 nM. Besides, the EC50 under setting [1] was less than 500 nM.

Turning to `COc1cnc(-n2cnc(C)n2)c2[nH]cc(C(=O)C(=O)N3CCc4c(ncnc4-c4ccccc4)N3)c12` [Compound 2004, 1-(4-methoxy-7-(3-methyl-1H-1,2,4-triazol-1-yl)-1H-pyrrolo[2,3-c]pyridin-3-yl)-2-(5-phenyl-3,4-dihydropyrimido[4,5-c]pyridazin-2(1H)-yl)ethane-1,2-dione], under setting [1], the EC50 was less than 500 nM.

With `COc1cnc(-n2cnc(C)n2)c2[nH]cc(C(=O)C(=O)N3C(C)Cc4c(-c5ccccc5)ncnc4N3C)c12` (stereo not drawn) [Compound 2003, 1-(1,3-dimethyl-5-phenyl-3,4-dihydropyrimido[4,5-c]pyridazin-2(1H)-yl)-2-(4-methoxy-7-(3-methyl-1H-1,2,4-triazol-1-yl)-1H-pyrrolo[2,3-c]pyridin-3-yl)ethane-1,2-dione], the concentration for a half-maximal effect (EC50) under setting [1] is less than 500 nM.

On to `COc1cnc(-n2cnc(C)n2)c2[nH]cc(C(=O)C(=O)N3CC/C(=C(\C#N)c4ccccc4)CN3)c12` [Compound 1002], for which a half-maximal response (EC50) required 0.29 nM. Also, the concentration giving a half-maximal response (EC50) under setting [1] is less than 500 nM.

Turning to `COc1cnc(-n2cnc(C)n2)c2[nH]cc(C(=O)C(=O)N3CCc4c(-c5ccccn5)ncnc4N3C)c12` [Compound 2002, 1-(4-methoxy-7-(3-methyl-1H-1,2,4-triazol-1-yl)-1H-pyrrolo[2,3-c]pyridin-3-yl)-2-(1-methyl-5-(pyridin-2-yl)-3,4-dihydropyrimido[4,5-c]pyridazin-2(1H)-yl)ethane-1,2-dione], the concentration giving a half-maximal response (EC50) under setting [1] was less than 500 nM.

For `N#C/C(=C1\CCN(C(=O)C(=O)c2c[nH]c3c(-n4ccnn4)ncc(F)c23)NC1)c1ccccc1` [Compound 1001], the EC50 under setting [1] is less than 500 nM.

In the case of `COc1cnc(-n2cnc(C)n2)c2[nH]cc(C(=O)C(=O)N3CCc4c(-c5ccccc5)ncnc4N3C)c12` [Compound 2001, 1-(4-methoxy-7-(3-methyl-1H-1,2,4-triazol-1-yl)-1H-pyrrolo[2,3-c]pyridin-3-yl)-2-(1-methyl-5-phenyl-3,4-dihydropyrimido[4,5-c]pyridazin-2(1H)-yl)ethane-1,2-dione], the EC50 under setting [1] is less than 500 nM.

A word on the EC50: it is the concentration at which the effect is half-maximal.

The values above are taken from patent US9193725B2, “Cyclic hydrazine derivatives as HIV attachment inhibitors” (priority 2012, dated 2015).
